Key:
Hsp90 = molecular target: T1, Hsp90 (Homo sapiens, UniProt P07900); experiment: SPR binding assay on immobilized Hsp90
T1 construct: purchased Assay Designs (Ann Arbor, MI, USA); host or cells: E. coli
Method: Radicicol was used as positive controls.
SPR analyses were performed as describe elsewhere, [38]. Briefly, SPR analyses were performed using a Biacore 3000 optical biosensor equipped with research-grade CM5 sensor chips (GE Healthcare). Using this platform, two separate recombinant Hsp90 surfaces, a BSA surface and an unmodified reference surface were prepared for simultaneous analyses. […] Included in each analysis were multiple blank samples of running buffer alone. Binding experiments were performed at 25°C, using a flow rate of 50 µL min^−1, with 60 s monitoring of association and 200 s monitoring of dissociation. […] Sensorgram elaborations were performed using the Biaevaluation software provided by GE Healthcare.

[1] = molecular target: T2, human full length recombinant Hsp90 (Homo sapiens, UniProt P07900); experiment: Competitive fluorescence polarization assay with fluorescent geldanamycin probe (fGDA); format: binding; conditions: concentration up to 100 µM, added before or after fGDA
T2 construct: purchased Assay Designs (Ann Arbor, MI, USA); host or cells: E. coli
Method: In an effort to identify the Hsp90 region involved in (+)-lentiginosine binding, we first performed some fluorescence polarization assays using a fluorescent geldanamycin probe (fGDA) to evaluate if this compound could interact with the ATP-binding pocket of Hsp90 [25].
Binding of compound 1 to human full length recombinant Hsp90 was determined by a competitive binding fluorescence polarization assay using a fluorescent geldanamycin probe, as reported elsewhere.

Hsp90 chaperone activity = molecular target: T3, Hsp90 chaperone activity (Homo sapiens, UniProt P07900); experiment: Citrate synthase thermal aggregation assay (chaperone activity); format: biochemical; conditions: 0.075 µM CS, 0.075 µM Hsp90, 0.3 µM compound (4-fold molar excess), 43°C, light scattering
T3 construct: purchased Assay Designs (Ann Arbor, MI, USA); host or cells: E. coli
Method: The ability of compounds 1, 3 and 4 to inhibit the chaperone activity of Hsp90 was also evaluated monitoring the citrate synthase (CS) thermal induced aggregation in the presence of Hsp90 [24], with or without these compounds. […] The spontaneous aggregation of CS at 43°C (♦) and the aggregation of CS at 43°C in the presence of 0.075 µM Hsp90 (Δ) or of 0.075 µM Hsp90 and 0.3 µM compound 1 (▪), 0.3 µM compound 2 (•), 0.3 compound 3 (□), or 0.3 µM compound 4 (○) are shown. Chaperone activity was evaluated as reported elsewhere by monitoring the thermal-induced aggregation of Citrate synthase (CS) in absence or in presence of a stoichiometric amount of Hsp90, and with or without a 4-fold molar excess of each testing compound. Aggregation was initiated by unfolding CS (0.075 µM) incubating the protein in 40 mM HEPES–KOH, pH 7.5 at 43°C. Aggregation was monitored by measuring light scattering at right angles with Perkin Elmer LS 55 fluorimeter in stirred and thermostated quartz cells. Both the emission and excitation wavelengths were set at 500 nm, and the band pass was 2 nm. Kinetics traces reported here are the averages of two measurements.

Hsp90 ATPase activity = molecular target: T4, Hsp90 ATPase activity (Homo sapiens, UniProt P07900); experiment: ATP hydrolysis inhibition (ADP Hunter Plus assay); format: biochemical; conditions: 40 nM Hsp90, 100 µM ATP; for inhibition of the ATPase activity of Hsp90: 60 min, 40°C, different concentrations
T4 construct: purchased Assay Designs (Ann Arbor, MI, USA); host or cells: E. coli
Method: To evaluate the effect of interacting compounds on Hsp90 biological activity, the ATPase activity of the enzyme was tested in the presence of the most affine compounds (1, 3 and 4); […]. (−)-Lentiginosine was used as negative control.
The Discover RX ADP HunterTM Plus Assay kit was used following the manufacturer’s instructions. […]. ADP generation was measured using a Perkin Elmer LS 55 fluorimeter (540 nm excitation and 620 nm emission). Fluorescence intensity values measured for Hsp90 without any testing compound was assumed as 100% of enzyme activity. The background reaction rate was measured in a reaction lacking enzyme or substrate and subtracted from the experimental rates.

[2] = immobilized Hsp90, 25°C, single-site bimolecular model

N[C@H]1CCN2C[C@H](O)[C@@H](O)[C@@H]2C1 [Compound 7]
Kd (Hsp90; [2]): 1009 ± 5.8 nM
koff (Hsp90; [2]): 25.6±2.1 10^-3 1/s

OCCc1cn([C@H]2CCN3C[C@H](O)[C@@H](O)[C@@H]3C2)nn1 [Compound 5]
Kd (Hsp90; [2]): 116 ± 1.6 nM
koff (Hsp90; [2]): 2.55±0.35 10^-3 1/s

O[C@@H]1[C@@H](O)CN2CCCC[C@@H]12 [Compound 1, (+)-lentiginosine]
displacement of fGDA from Hsp90 [1]: unable to displace fGDA
Kd (Hsp90; [2]): 24.7 ± 0.6 nM
koff (Hsp90; [2]): 1.86±0.31 10^-3 1/s
inhibition of Hsp90 chaperone activity (CS aggregation kinetics) (Hsp90 chaperone activity): inhibition of Hsp90 chaperone activity
ATPase inhibitory power compared with 17-AAG (Hsp90 ATPase activity): inhibitory power higher than that measured for 17-AAG
inhibition of the ATPase activity of Hsp90 (Hsp90 ATPase activity): inhibit the ATPase activity of Hsp90 in a concentration dependent manner

O[C@H]1[C@H](O)CN2CCCC[C@H]12 [Compound 2, (−)-lentiginosine]
interaction with immobilized Hsp90 (Hsp90; 0.020 to 1 µM): did not bind
KD (Hsp90; [2]): No binding
inhibition of Hsp90 chaperone activity (CS aggregation kinetics) (Hsp90 chaperone activity): not able to inhibit the chaperone activity of Hsp90

CCCCCCc1cn([C@H]2CCN3C[C@H](O)[C@@H](O)[C@@H]3C2)nn1 [Compound 4]
Kd (Hsp90; [2]): 45.9 ± 0.5 nM
koff (Hsp90; [2]): 2.05±0.42 10^-3 1/s
inhibition of Hsp90 chaperone activity (CS aggregation kinetics) (Hsp90 chaperone activity): inhibitory effects were less evident
inhibition of the ATPase activity of Hsp90 (Hsp90 ATPase activity): inhibit the ATPase activity of Hsp90 in a concentration dependent manner

N[C@@H](Cc1c[nH]c2ccccc12)C(=O)NCc1cn([C@H]2CCN3C[C@H](O)[C@@H](O)[C@@H]3C2)nn1 [Compound 6]
Kd (Hsp90; [2]): 306.8 ± 2.9 nM
koff (Hsp90; [2]): 4.12±0.81 10^-3 1/s

N=C(N)NCCC[C@H](N)C(=O)N[C@H]1CCN2C[C@H](O)[C@@H](O)[C@@H]2C1 [Compound 3]
Kd (Hsp90; [2]): 108 ± 1.1 nM
koff (Hsp90; [2]): 2.18±0.23 10^-3 1/s
inhibition of Hsp90 chaperone activity (CS aggregation kinetics) (Hsp90 chaperone activity): inhibitory effects were less evident
inhibition of the ATPase activity of Hsp90 (Hsp90 ATPase activity): inhibit the ATPase activity of Hsp90 in a concentration dependent manner

Source: publication PMC3423353, “Natural Iminosugar (+)-Lentiginosine Inhibits ATPase and Chaperone Activity of Hsp90” (PLoS ONE, 2012)
